Results: ChEMBL document CHEMBL1155690, “Antiyeast steroidal saponins from Yucca schidigera (Mohave yucca), a new anti-food-deteriorating agent” (2000)
In brackets after ≈: the same amount, converted by molar mass.

What was measured:
Format in all cases: functional
Saccharomyces cerevisiae = assay: Antimicrobial activity against Saccharomyces cerevisiae IFO 203 after 48 hrs by agar dilution method; conditions: IFO 203, 48 h
Debaryomyces hansenii = assay: Antimicrobial activity against Debaryomyces hansenii IFO 18 after 48 hrs by agar dilution method; conditions: IFO 18, 48 h
Candida albicans = assay: Antimicrobial activity against Candida albicans TIMM 0134 after 48 hrs by agar dilution method
Wickerhamomyces anomalus = assay: Antimicrobial activity against Hansenula anomala HUT 7083 after 48 hrs by agar dilution method
Yamadazyma nakazawae = assay: Antimicrobial activity against Pichia nakazawae HUT 1688 after 48 hrs by agar dilution method
Hanseniaspora uvarum = assay: Antimicrobial activity against Kloeckera apiculata IFO 154 after 48 hrs by agar dilution method; conditions: IFO 154, 48 h

SMILES: C=C1CC[C@@]2(OC1)O[C@H]1C[C@H]3[C@@H]4CC[C@@H]5C[C@@H](O[C@@H]6O[C@H](CO)[C@H](O)[C@H](O[C@@H]7OC[C@@H](O)[C@H](O)[C@H]7O)[C@H]6O[C@@H]6O[C@H](CO)[C@@H](O)[C@H](O)[C@H]6O)[C@@H](O)C[C@]5(C)[C@H]4CC[C@]3(C)[C@H]1[C@@H]2C
- MIC (Saccharomyces cerevisiae): 100 µg/mL (≈ 113 µM)
- MIC (Debaryomyces hansenii): > 100 µg/mL
- MIC (Candida albicans): 100 µg/mL (≈ 113 µM)
- MIC (Wickerhamomyces anomalus): > 100 µg/mL
- MIC (Yamadazyma nakazawae): 100 µg/mL (≈ 113 µM)
- MIC (Hanseniaspora uvarum): > 100 µg/mL

SMILES: C=C1CC[C@@]2(OC1)O[C@H]1C[C@H]3[C@@H]4CC[C@@H]5C[C@@H](O[C@@H]6O[C@H](CO)[C@H](O)[C@H](O)[C@H]6O[C@@H]6O[C@H](CO)[C@@H](O)[C@H](O)[C@H]6O)[C@@H](O)C[C@]5(C)[C@H]4CC[C@]3(C)[C@H]1[C@@H]2C
- MIC (Saccharomyces cerevisiae): > 100 µg/mL
- MIC (Debaryomyces hansenii): > 100 µg/mL
- MIC (Candida albicans): > 100 µg/mL
- MIC (Wickerhamomyces anomalus): > 100 µg/mL
- MIC (Yamadazyma nakazawae): > 100 µg/mL
- MIC (Hanseniaspora uvarum): > 100 µg/mL

SMILES: CC1CC[C@@]2(OC1)O[C@H]1C[C@H]3[C@@H]4CC[C@@H]5C[C@@H](O[C@@H]6O[C@H](CO)[C@@H](O)[C@H](O[C@@H]7OC[C@@H](O)[C@H](O)[C@H]7O)[C@H]6O[C@@H]6O[C@H](CO)[C@@H](O)[C@H](O)[C@H]6O)CC[C@]5(C)[C@H]4CC[C@]3(C)[C@H]1[C@@H]2C (mixture of isomers)
- MIC (Saccharomyces cerevisiae): 6.25 µg/mL
- MIC (Debaryomyces hansenii): 6.25 µg/mL
- MIC (Candida albicans): 50 µg/mL
- MIC (Wickerhamomyces anomalus): 3.13 µg/mL
- MIC (Yamadazyma nakazawae): 3.13 µg/mL
- MIC (Hanseniaspora uvarum): > 100 µg/mL

SMILES: C[C@H]1CC[C@@]2(OC1)O[C@H]1C[C@H]3[C@@H]4CC[C@@H]5C[C@@H](O[C@@H]6O[C@H](CO)[C@H](O)[C@H](O)[C@H]6O[C@@H]6O[C@H](CO)[C@@H](O)[C@H](O)[C@H]6O)[C@@H](O)C[C@]5(C)[C@H]4CC[C@]3(C)[C@H]1[C@@H]2C
- MIC (Saccharomyces cerevisiae): > 100 µg/mL
- MIC (Debaryomyces hansenii): > 100 µg/mL
- MIC (Candida albicans): > 100 µg/mL
- MIC (Wickerhamomyces anomalus): > 100 µg/mL
- MIC (Yamadazyma nakazawae): 100 µg/mL (≈ 132 µM)
- MIC (Hanseniaspora uvarum): > 100 µg/mL

SMILES: CC1CC[C@@]2(OC1)O[C@H]1C[C@H]3[C@@H]4CC[C@@H]5C[C@@H](O[C@@H]6O[C@H](CO)[C@H](O)[C@H](O[C@@H]7OC[C@@H](O)[C@H](O)[C@H]7O)[C@H]6O[C@@H]6O[C@H](CO)[C@@H](O)[C@H](O)[C@H]6O)CC[C@]5(C)[C@H]4CC[C@]3(C)[C@H]1[C@@H]2C (mixture of isomers)
- MIC (Saccharomyces cerevisiae): 25 µg/mL
- MIC (Debaryomyces hansenii): 50 µg/mL
- MIC (Candida albicans): > 100 µg/mL
- MIC (Wickerhamomyces anomalus): 3.13 µg/mL
- MIC (Yamadazyma nakazawae): 12.5 µg/mL
- MIC (Hanseniaspora uvarum): > 100 µg/mL

SMILES: C[C@H]1CC[C@@]2(OC1)O[C@H]1C[C@H]3[C@@H]4CC[C@@H]5C[C@@H](O[C@@H]6O[C@H](CO)[C@@H](O)[C@H](O)[C@H]6O[C@@H]6O[C@H](CO)[C@@H](O)[C@H](O)[C@H]6O)CC[C@]5(C)[C@H]4CC[C@]3(C)[C@H]1[C@@H]2C
- MIC (Saccharomyces cerevisiae): 12.5 µg/mL (≈ 16.9 µM)
- MIC (Debaryomyces hansenii): > 100 µg/mL
- MIC (Candida albicans): 12.5 µg/mL (≈ 16.9 µM)
- MIC (Wickerhamomyces anomalus): 6.25 µg/mL (≈ 8.44 µM)
- MIC (Yamadazyma nakazawae): 3.13 µg/mL (≈ 4.22 µM)
- MIC (Hanseniaspora uvarum): > 100 µg/mL

SMILES: C=C1CC[C@@]2(OC1)O[C@H]1C[C@H]3[C@@H]4CC[C@@H]5C[C@@H](O[C@@H]6O[C@H](CO)[C@@H](O)[C@H](O[C@@H]7OC[C@@H](O)[C@H](O)[C@H]7O)[C@H]6O[C@@H]6O[C@H](CO)[C@@H](O)[C@H](O)[C@H]6O)CC[C@]5(C)[C@H]4CC(=O)[C@]3(C)[C@H]1[C@@H]2C
- MIC (Saccharomyces cerevisiae): > 100 µg/mL
- MIC (Debaryomyces hansenii): > 100 µg/mL
- MIC (Candida albicans): > 100 µg/mL
- MIC (Wickerhamomyces anomalus): > 100 µg/mL
- MIC (Yamadazyma nakazawae): > 100 µg/mL
- MIC (Hanseniaspora uvarum): > 100 µg/mL

SMILES: CC1CC[C@@]2(OC1)O[C@H]1C[C@H]3[C@@H]4CC[C@@H]5C[C@@H](O[C@@H]6O[C@H](CO)[C@H](O)[C@H](O[C@@H]7OC[C@@H](O)[C@H](O)[C@H]7O)[C@H]6O[C@@H]6O[C@H](CO)[C@@H](O)[C@H](O)[C@H]6O)[C@@H](O)C[C@]5(C)[C@H]4CC[C@]3(C)[C@H]1[C@@H]2C (some centres undefined)
- MIC (Saccharomyces cerevisiae): 100 µg/mL (≈ 112 µM)
- MIC (Debaryomyces hansenii): 100 µg/mL (≈ 112 µM)
- MIC (Candida albicans): > 100 µg/mL
- MIC (Wickerhamomyces anomalus): > 100 µg/mL
- MIC (Yamadazyma nakazawae): > 100 µg/mL
- MIC (Hanseniaspora uvarum): > 100 µg/mL

SMILES: C=C1CC[C@@]2(OC1)O[C@H]1C[C@H]3[C@@H]4CC[C@@H]5C[C@@H](O[C@@H]6O[C@H](CO)[C@H](O)[C@H](O[C@@H]7OC[C@@H](O)[C@H](O)[C@H]7O)[C@H]6O[C@@H]6O[C@H](CO)[C@@H](O)[C@H](O)[C@H]6O)CC[C@]5(C)[C@H]4CC[C@]3(C)[C@H]1[C@@H]2C
- MIC (Saccharomyces cerevisiae): 12.5 µg/mL (≈ 14.4 µM)
- MIC (Debaryomyces hansenii): > 100 µg/mL
- MIC (Candida albicans): 12.5 µg/mL (≈ 14.4 µM)
- MIC (Wickerhamomyces anomalus): 3.13 µg/mL (≈ 3.59 µM)
- MIC (Yamadazyma nakazawae): 3.13 µg/mL (≈ 3.59 µM)
- MIC (Hanseniaspora uvarum): > 100 µg/mL

SMILES: C[C@H]1CC[C@@]2(OC1)O[C@H]1C[C@H]3[C@@H]4CC[C@@H]5C[C@@H](O[C@@H]6O[C@H](CO)[C@H](O)[C@H](O[C@@H]7O[C@H](CO)[C@@H](O)[C@H](O)[C@H]7O)[C@H]6O[C@@H]6O[C@H](CO)[C@@H](O)[C@H](O)[C@H]6O)CC[C@]5(C)[C@H]4CC[C@]3(C)[C@H]1[C@@H]2C
- MIC (Saccharomyces cerevisiae): 12.5 µg/mL (≈ 13.8 µM)
- MIC (Debaryomyces hansenii): 6.25 µg/mL (≈ 6.92 µM)
- MIC (Candida albicans): 25 µg/mL (≈ 27.7 µM)
- MIC (Wickerhamomyces anomalus): 3.13 µg/mL (≈ 3.47 µM)
- MIC (Yamadazyma nakazawae): 6.25 µg/mL (≈ 6.92 µM)
- MIC (Hanseniaspora uvarum): 50 µg/mL (≈ 55.4 µM)

SMILES: C=C1CC[C@@]2(OC1)O[C@H]1C[C@H]3[C@@H]4CC[C@@H]5C[C@@H](O[C@@H]6O[C@H](CO)[C@@H](O)[C@H](O[C@@H]7OC[C@@H](O)[C@H](O)[C@H]7O)[C@H]6O[C@@H]6O[C@H](CO)[C@@H](O)[C@H](O)[C@H]6O)CC[C@]5(C)[C@H]4CC[C@]3(C)[C@H]1[C@@H]2C
- MIC (Saccharomyces cerevisiae): 3.13 µg/mL (≈ 3.59 µM)
- MIC (Debaryomyces hansenii): 6.25 µg/mL (≈ 7.18 µM)
- MIC (Candida albicans): 6.25 µg/mL (≈ 7.18 µM)
- MIC (Wickerhamomyces anomalus): 3.13 µg/mL (≈ 3.59 µM)
- MIC (Yamadazyma nakazawae): 3.13 µg/mL (≈ 3.59 µM)
- MIC (Hanseniaspora uvarum): 12.5 µg/mL (≈ 14.4 µM)

SMILES: C=C1CC[C@@]2(OC1)O[C@H]1C[C@H]3[C@@H]4CC[C@@H]5C[C@@H](O[C@@H]6O[C@H](CO)[C@@H](O)[C@H](O[C@@H]7O[C@H](CO)[C@@H](O)[C@H](O)[C@H]7O)[C@H]6O[C@@H]6O[C@H](CO)[C@@H](O)[C@H](O)[C@H]6O)CC[C@]5(C)[C@H]4CC[C@]3(C)[C@H]1[C@@H]2C
- MIC (Saccharomyces cerevisiae): 12.5 µg/mL (≈ 13.9 µM)
- MIC (Debaryomyces hansenii): > 100 µg/mL
- MIC (Candida albicans): 12.5 µg/mL (≈ 13.9 µM)
- MIC (Wickerhamomyces anomalus): 6.13 µg/mL (≈ 6.8 µM)
- MIC (Yamadazyma nakazawae): 3.13 µg/mL (≈ 3.47 µM)
- MIC (Hanseniaspora uvarum): > 100 µg/mL

SMILES: CC1CC[C@@]2(OC1)O[C@H]1C[C@H]3[C@@H]4CC[C@@H]5C[C@@H](O[C@@H]6O[C@H](CO)[C@@H](O)[C@H](O[C@@H]7OC[C@@H](O)[C@H](O)[C@H]7O)[C@H]6O[C@@H]6O[C@H](CO)[C@@H](O)[C@H](O)[C@H]6O)CC[C@]5(C)[C@H]4CC(=O)[C@]3(C)[C@H]1[C@@H]2C (mixture of isomers)
- MIC (Saccharomyces cerevisiae): 100 µg/mL
- MIC (Debaryomyces hansenii): > 100 µg/mL
- MIC (Candida albicans): > 100 µg/mL
- MIC (Wickerhamomyces anomalus): 100 µg/mL
- MIC (Yamadazyma nakazawae): > 100 µg/mL
- MIC (Hanseniaspora uvarum): > 100 µg/mL

SMILES: C[C@H]1CC[C@@]2(OC1)O[C@H]1C[C@H]3[C@@H]4CC[C@@H]5C[C@@H](O[C@@H]6O[C@H](CO)[C@@H](O)[C@H](O[C@@H]7O[C@H](CO)[C@@H](O)[C@H](O)[C@H]7O)[C@H]6O[C@@H]6O[C@H](CO)[C@@H](O)[C@H](O)[C@H]6O)CC[C@]5(C)[C@H]4CC[C@]3(C)[C@H]1[C@@H]2C
- MIC (Saccharomyces cerevisiae): 6.25 µg/mL (≈ 6.92 µM)
- MIC (Debaryomyces hansenii): 6.25 µg/mL (≈ 6.92 µM)
- MIC (Candida albicans): > 100 µg/mL
- MIC (Wickerhamomyces anomalus): 1.56 µg/mL (≈ 1.73 µM)
- MIC (Yamadazyma nakazawae): 3.13 µg/mL (≈ 3.47 µM)
- MIC (Hanseniaspora uvarum): > 100 µg/mL
